Tests used:
rice [1] = assay: Test B pre-/postemergence herbicide test; format: in vivo, Oryza sativa; details: preemergence
In short: (§1)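 Test chemicals in a non-phytotoxic solvent mixture with surfactant were applied preemergence to seeded species and postemergence to plants 2-18 cm tall (1- to 4-leaf stage); rice and barnyardgrass were also tested in a flooded paddy at the 2-leaf stage. Visual rating versus controls after 13-15 days in greenhouse, scale 0 (no effect) to 100 (complete control).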

velvetleaf [2] = assay: Test B pre-/postemergence herbicide test; format: in vivo, Abutilon theophrasti; details: for Velvetleaf plant response rating: postemergence, visual rating, scale 0 (no effect) to 100 (complete control)
In short: as §1

morningglory [3] = assay: Test B pre-/postemergence herbicide test; format: in vivo, Ipomoea coccinea; details: for Morningglory plant response rating: postemergence, visual rating, scale 0 (no effect) to 100 (complete control)
In short: as §1

wheat = assay: Test B postemergence herbicide test; format: in vivo, Triticum aestivum; parameters: key to Wheat plant response rating: 0 = no effect, 100 = complete control; details: postemergence, visual rating, scale 0 (no effect) to 100 (complete control)
In short: (§2)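 Each value is a visual 0–100 response rating taken against controls 13 to 15 days after treatment in the greenhouse. Plants received formulated chemical postemergence at the 1- to 4-leaf stage or, in flooded paddy, at the 2-leaf stage.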

corn = assay: Test B pre-/postemergence herbicide test; format: in vivo, Zea mays; details: for Corn plant response rating: postemergence, visual rating, scale 0 (no effect) to 100 (complete control)
In short: as §1

barnyardgrass [4] = assay: Test B flooded paddy test; format: in vivo, Echinochloa crus-galli; details: 1000 g ai/ha, visual rating, scale 0 to 100 (0 no effect, 100 complete control), 13 to 15 days
In short: (§3)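 Paddy species grown to the 2-leaf stage under flooding; blackgrass sprayed postemergence at 2–18 cm (1- to 4-leaf stage). Plants kept in a greenhouse for 13 to 15 days, then visually rated against controls on 0 (no effect) to 100 (complete control).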

barnyardgrass [5] = assay: Test A pre-/postemergence herbicide test; format: in vivo, Echinochloa crus-galli
In short: (§4)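 Pre: seeded sandy loam, directed soil spray, compound in non-phytotoxic solvent + surfactant. Post: 1–2-leaf plants (2–10 cm), sprayed to runoff. Greenhouse ~10 d; visual injury vs untreated, 0–100 scale.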

pigweed = assay: Test B pre-/postemergence herbicide test; format: in vivo, Amaranthus retroflexus; details: for Pigweed plant response rating: postemergence, visual rating, scale 0 (no effect) to 100 (complete control)
In short: as §1

rice [6] = assay: Test B flooded paddy test; format: in vivo, Oryza sativa; details: 1000 g ai/ha, visual rating, scale 0 to 100 (0 no effect, 100 complete control), 13 to 15 days
In short: as §3

[7] = tested on: small flower umbrella sedge; assay: Test B flooded paddy test; format: in vivo, Cyperus difformis; details: 1000 g ai/ha, visual rating, scale 0 to 100 (0 no effect, 100 complete control), 13 to 15 days
In short: as §3

cocklebur = assay: Test B pre-/postemergence herbicide test; format: in vivo, Xanthium strumarium; details: postemergence, visual rating, scale 0 (no effect) to 100 (complete control)
In short: as §1

redroot pigweed = assay: Test A pre-/postemergence herbicide test; format: in vivo, Amaranthus retroflexus
In short: as §4

barnyardgrass [8] = assay: Test B pre-/postemergence herbicide test; format: in vivo, Echinochloa crus-galli; details: for Barnyardgrass plant response rating: postemergence, visual rating, scale 0 (no effect) to 100 (complete control)
In short: as §1

morningglory [9] = assay: Test A pre-/postemergence herbicide test; format: in vivo, Ipomoea spp.
In short: as §4

lambsquarters = assay: Test B pre-/postemergence herbicide test; format: in vivo, Chenopodium album; details: for Lambsquarters plant response rating: postemergence, visual rating, scale 0 (no effect) to 100 (complete control)
In short: as §1

large crabgrass [10] = assay: Test B pre-/postemergence herbicide test; format: in vivo, Digitaria sanguinalis; details: for Crabgrass, Large plant response rating: postemergence, visual rating, scale 0 (no effect) to 100 (complete control)
In short: as §1

wild oat = assay: Test B postemergence herbicide test; format: in vivo, Avena fatua; details: postemergence, visual rating, scale 0 (no effect) to 100 (complete control)
In short: as §2

velvetleaf [11] = assay: Test A pre-/postemergence herbicide test; format: in vivo, Abutilon theophrasti
In short: as §4

large crabgrass [12] = assay: Test A pre-/postemergence herbicide test; format: in vivo, Digitaria sanguinalis
In short: as §4

giant foxtail [13] = assay: Test B pre-/postemergence herbicide test; format: in vivo, Setaria faberi; details: for Foxtail, Giant plant response rating: postemergence, visual rating, scale 0 (no effect) to 100 (complete control)
In short: as §1

Surinam grass = assay: Test B pre-/postemergence herbicide test; format: in vivo, Urochloa decumbens; details: for Surinam Grass plant response rating: postemergence, visual rating, scale 0 (no effect) to 100 (complete control)
In short: as §1

ducksalad = assay: Test B flooded paddy test; format: in vivo, Heteranthera limosa; details: 1000 g ai/ha, visual rating, scale 0 to 100 (0 no effect, 100 complete control), 13 to 15 days
In short: as §3

giant foxtail [14] = assay: Test A pre-/postemergence herbicide test; format: in vivo, Setaria faberi
In short: as §4

blackgrass = assay: Test B postemergence herbicide test; format: in vivo, Alopecurus myosuroides; details: postemergence, visual rating, scale 0 (no effect) to 100 (complete control)
In short: as §3

[15] = 125 g ai/ha, 0 = no effect, 100 = complete control, preemergence
[16] = 500 g ai/ha, visual rating 0-100, 0 no effect, 100 complete control, preemergence
[17] = Postemergence, 500 g ai/ha, 0 to 100 scale, 0 no effect, 100 complete control
[18] = Postemergence, 2000 g ai/ha, 0 to 100 scale, 0 no effect, 100 complete control
[19] = Preemergence, 2000 g ai/ha, visual rating, 0 to 100 scale (0 no effect, 100 complete control)
[20] = preemergence, 500 g ai/ha, visual injury, 0 to 100 scale (0 no effect, 100 complete control)

CCn1nc(C(C)(C)C)cc1C(=O)Nc1nc(OC)cc(SCF)n1 [Compound 167]
Rice plant response rating (0 to 100 scale) (rice [1]; 125 g ai/ha, 0 = no effect, 100 = complete control): 0 | Plant response rating, Rice (rice [1]; 500 g ai/ha, visual rating 0-100, 0 no effect, 100 complete control): 0 | Velvetleaf plant response rating (0 to 100 scale) (velvetleaf [2]; [15]): 0 | Plant response rating, Velvetleaf (velvetleaf [2]; [16]): 0 | Velvetleaf plant response rating (velvetleaf [2]; 125 g ai/ha): 0 | Velvetleaf plant response rating (velvetleaf [2]; 500 g ai/ha): 0 | Morningglory plant response rating (0 to 100 scale) (morningglory [3]; [15]): 0 | Plant response rating, Morningglory (morningglory [3]; [16]): 0 | Morningglory plant response rating (morningglory [3]; 125 g ai/ha): 0 | Morningglory plant response rating (morningglory [3]; 500 g ai/ha): 0 | Wheat plant response rating (wheat; 125 g ai/ha): 0 | Wheat plant response rating (wheat; 500 g ai/ha): 0 | Plant response rating, Corn (corn; [16]): 0 | Corn plant response rating (corn; 125 g ai/ha): 0 | Corn plant response rating (corn; 500 g ai/ha): 0 | Barnyardgrass plant response rating (barnyardgrass [4]): 0 | Barnyardgrass plant response rating (barnyardgrass [5]; [17]): 0 | Plant response rating, Barnyardgrass (barnyardgrass [5]; [18]): 0 | Barnyardgrass plant response rating (barnyardgrass [5]; [19]): 0 | Barnyardgrass plant response rating (barnyardgrass [5]; [20]): 0 | Pigweed plant response rating (0 to 100 scale) (pigweed; [15]): 0 | Plant response rating, Pigweed (pigweed; [16]): 0 | Pigweed plant response rating (pigweed; 125 g ai/ha): 0 | Pigweed plant response rating (pigweed; 500 g ai/ha): 0 | Rice plant response rating (rice [6]): 0 | Sedge, Umbrella plant response rating [7]: 0 | Cocklebur plant response rating (cocklebur; 125 g ai/ha): 0 | Cocklebur plant response rating (cocklebur; 500 g ai/ha): 0 | Pigweed plant response rating (redroot pigweed; [17]): 0 | Plant response rating, Pigweed (redroot pigweed; [18]): 0 | Pigweed plant response rating (redroot pigweed; [19]): 50 | Pigweed plant response rating (redroot pigweed; [20]): 0 | Barnyardgrass plant response rating (0 to 100 scale) (barnyardgrass [8]; [15]): 0 | Plant response rating, Barnyardgrass (barnyardgrass [8]; [16]): 0 | Barnyardgrass plant response rating (barnyardgrass [8]; 125 g ai/ha): 0 | Barnyardgrass plant response rating (barnyardgrass [8]; 500 g ai/ha): 0 | Morningglory plant response rating (morningglory [9]; [17]): 0 | Plant response rating, Morningglory (morningglory [9]; [18]): 10 | Morningglory plant response rating (morningglory [9]; [19]): 5 | Morningglory plant response rating (morningglory [9]; [20]): 0 | Lambsquarters plant response rating (0 to 100 scale) (lambsquarters; [15]): 0 | Plant response rating, Lambsquarters (lambsquarters; [16]): 0 | Lambsquarters plant response rating (lambsquarters; 125 g ai/ha): 0 | Lambsquarters plant response rating (lambsquarters; 500 g ai/ha): 0 | Crabgrass, Large plant response rating (0 to 100 scale) (large crabgrass [10]; [15]): 0 | Plant response rating, Crabgrass, Large (large crabgrass [10]; [16]): 0 | Crabgrass, Large plant response rating (large crabgrass [10]; 125 g ai/ha): 0 | Crabgrass, Large plant response rating (large crabgrass [10]; 500 g ai/ha): 0 | Oat, Wild plant response rating (wild oat; 125 g ai/ha): 0 | Oat, Wild plant response rating (wild oat; 500 g ai/ha): 0 | Velvetleaf plant response rating (velvetleaf [11]; [17]): 10 | Plant response rating, Velvetleaf (velvetleaf [11]; [18]): 20 | Velvetleaf plant response rating (velvetleaf [11]; [19]): 10 | Velvetleaf plant response rating (velvetleaf [11]; [20]): 5 | Crabgrass, Large plant response rating (large crabgrass [12]; [17]): 0 | Plant response rating, Crabgrass, Large (large crabgrass [12]; [18]): 5 | Crabgrass, Large plant response rating (large crabgrass [12]; [19]): 5 | Crabgrass, Large plant response rating (large crabgrass [12]; [20]): 0 | Foxtail, Giant plant response rating (0 to 100 scale) (giant foxtail [13]; [15]): 0 | Plant response rating, Foxtail, Giant (giant foxtail [13]; [16]): 0 | Foxtail, Giant plant response rating (giant foxtail [13]; 125 g ai/ha): 0 | Foxtail, Giant plant response rating (giant foxtail [13]; 500 g ai/ha): 0 | Surinam Grass plant response rating (0 to 100 scale) (Surinam grass; [15]): 0 | Plant response rating, Surinam Grass (Surinam grass; [16]): 0 | Surinam Grass plant response rating (Surinam grass; 125 g ai/ha): 0 | Surinam Grass plant response rating (Surinam grass; 500 g ai/ha): 0 | Ducksalad plant response rating (ducksalad): 0 | Foxtail, Giant plant response rating (giant foxtail [14]; [17]): 0 | Plant response rating, Foxtail, Giant (giant foxtail [14]; [18]): 0 | Foxtail, Giant plant response rating (giant foxtail [14]; [19]): 10 | Foxtail, Giant plant response rating (giant foxtail [14]; [20]): 0 | Blackgrass plant response rating (blackgrass; 125 g ai/ha): 0 | Blackgrass plant response rating (blackgrass; 500 g ai/ha): 0
